Experimental data taken from patent publication US11773127B2, “Compounds and methods for treating bacterial infections” (Washington University, priority 2017, dated 2023).
Converted amounts (≈) assume the structure as drawn. Where two headings read alike, the source gives them in different places.

What was measured:
FmlHLD [1] = molecular target: T1, FmlHLD (Escherichia coli, UniProt P77588); test: biochemical; format: binding, E. coli
T1 construct: 6xHis (C); made in house; host or cells: E. coli C600, periplasm, pTRC99a
Description: Bio-layer interferometry (BLI) was used to quantitate the binding affinity of select galactosides to FmlH.
Thereafter, pins were dipped in PBS for 120 s and transferred to protein samples (varying concentration of FmlHLD or fixed concentration of FmlHLD with varying concentration of galactoside compounds) for association for 300-600 s.

[2] = Stability in simulated gastric fluid (SGF); format: in vitro ADME
Method: (§1) These compounds were assessed for their stability in simulated gastric fluid (SGF), simulated intestinal fluid (SIF), mouse liver microsomes, and blood plasma (Table 7). […] These findings are consistent with our earlier characterization of FimH antagonists (mannosides).

[3] = Mouse liver microsome stability; format: in vitro ADME
Method: as §1

FmlHLD [4] = molecular target: T1, FmlHLD; test: biochemical; format: binding, E. coli; conditions: for IC50: IC50 (μM), Table 6, sulfonamides 3078-3090; for inhibition of FmlHLD binding to ds-BSM, in words: soluble compound at 1 mM; for PI100 (percent inhibition): galactoside at 100 μM; for PI10 (percent inhibition): galactoside at 10 μM, 10 µM
How it was run: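 Sialidase-treated bovine submaxillary mucin (ds-BSM) coated wells, BSA-blocked, then biotinylated FmlH^LD (20 μg/mL) with or without compound for 1 h at room temperature. Bound lectin detected by streptavidin-HRP/TMB, A450.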

Kinetic solubility = format: physicochemical
Mouse plasma stability = format: in vitro ADME
Method: as §1

[5] = Stability in simulated intestinal fluid (SIF); format: in vitro ADME
Method: as §1

[6] = Rat pharmacokinetics, plasma and urine, IV and PO; format: in vivo
Method: In this example, the concentration of compounds 3086 and 3090 in rat plasma and urine following either a 10 mg/kg oral dose (PO; circular dots) or a 3 mg/kg intravenous dose (IV; square dots) was determined (FIG. 16, panel A (3086) and panel B (3090)). […] Thus, the metabolic stability of these compounds and clearance of these compounds has no relation to the permeability (oral or otherwise) of compounds. The highly polar nature of these molecules containing the sugar GalNAc and multiple polar functionalities precludes their permeability in the gut.

[7] = Kd (μM), inhibitory constants, fixed FmlHLD, varying galactoside in solution, immobilized ser-TF
[8] = read-out: % Inhibition at [μM] [1], compound at 1 μM, inhibition of FmlHLD binding to ds-BSM
[9] = read-out: % Inhibition at [μM] [10], compound at 10 μM, inhibition of FmlHLD binding to ds-BSM
[10] = read-out: % Inhibition at [μM] [100], compound at 100 μM, inhibition of FmlHLD binding to ds-BSM
[11] = read-out: PI100 (percent inhibition), galactoside at 100 μM, mean with standard error of the mean
[12] = rat plasma, 10 mg/kg PO or 3 mg/kg IV
[13] = mean with standard error of the mean, 100 µM
[14] = read-out: PI1 (percent inhibition), galactoside at 1 μM, mean with standard error of the mean
[15] = read-out: PI10 (percent inhibition), galactoside at 10 μM, mean with standard error of the mean
[16] = mean with standard error of the mean

T1 sequence (P77588 25-182): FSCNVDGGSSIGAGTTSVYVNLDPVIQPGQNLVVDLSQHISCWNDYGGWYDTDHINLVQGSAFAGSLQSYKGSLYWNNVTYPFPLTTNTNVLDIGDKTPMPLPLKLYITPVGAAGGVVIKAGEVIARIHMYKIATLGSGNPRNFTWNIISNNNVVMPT

O=[N+]([O-])c1ccccc1O[C@@H]1O[C@H](CO)[C@H](O)[C@H](O)[C@H]1O [4β (ONPG), reference compound]
Kd (FmlHLD [1]; [7]): 10.6 ± 4.6 µM

CC(=O)N[C@H]1[C@H](Oc2cccc(F)c2-c2cccc(NS(C)(=O)=O)c2)O[C@H](CO)[C@H](O)[C@@H]1O [Compound 3080, N-((2S,3R,4R,5R,6R)-2-((6-fluoro-3′-(methylsulfonamido)-[1,1′-biphenyl]-2-yl)oxy)-4,5-dihydroxy-6-(hydroxymethyl)tetrahydro-2H-pyran-3-yl)acetamide]
SGF % remaining 6 h [2]: 91.95%
Mouse liver microsomes (t1/12 min) [3]: >145 min
IC50 (FmlHLD [4]): 0.15 µM
solubility kinetic (Kinetic solubility): 197 µM (≈ 95.4 µg/mL)
Mouse plasma % remaining 2 h (Mouse plasma stability): 89.1%
SIF % remaining 2 h [5]: 93.79%

Cc1cccc(O[C@@H]2OC(CO)[C@H](O)[C@H](O)[C@@H]2NC(=O)C(F)(F)F)c1-c1cccc(NS(C)(=O)=O)c1 (stereo partly drawn) [Compound 3088, N-((2S,3S,4R,5R)-4,5-dihydroxy-6-(hydroxymethyl)-2-((6-methyl-3′-(methylsulfonamido)-[1,1′-biphenyl]-2-yl)oxy)tetrahydro-2H-pyran-3-yl)-2,2,2-trifluoroacetimidic acid]
SGF % remaining 6 h [2]: 90.95%
Mouse liver microsomes (t1/12 min) [3]: >145 min
IC50 (FmlHLD [4]): 0.11 µM
solubility kinetic (Kinetic solubility; kinetic from dmso stock): 164 µM (≈ 87.7 µg/mL)
Mouse plasma % remaining 2 h (Mouse plasma stability): 88.9%
SIF % remaining 2 h [5]: 89.15%

CC(=O)N[C@H]1[C@H](Oc2ccccc2-c2cccc(C(=O)O)c2)O[C@H](CO)[C@H](O)[C@@H]1O [Compound 200b-GalNAc]
Kd (FmlHLD [1]; Kd): 0.089 µM
inhibition at 1 µM (FmlHLD [4]; [8]): 35.1%
inhibition at 10 µM (FmlHLD [4]; [9]): 93%
inhibition at 100 µM (FmlHLD [4]; [10]): 99.5%

CC(=O)N[C@@H]1[C@@H](O[C@@H]2O[C@H](CO)[C@H](O)[C@H](O)[C@H]2O)[C@H](O)[C@@H](CO)O[C@@H]1O [Gal-β1-GalNAc, reference compound]
Kd (FmlHLD [1]; [7]): 248 ± 20.3 µM

CC(=O)N[C@@H]1[C@@H](O[C@@H]2O[C@H](CO)[C@H](O)[C@H](O)[C@H]2O)[C@@H](O)[C@@H](CO)O[C@@H]1O [TF, Gal-β1-3-GalNAc-α, reference compound]
Kd (FmlHLD [1]; Kd): 248 µM
inhibition at 100 µM (FmlHLD [4]; [10]): 15.5%
inhibition at 100 µM (FmlHLD [4]; [11]): 15.5 ± 6.7%
inhibition of FmlHLD binding to ds-BSM, in words (FmlHLD [4]): capable of inhibiting FmlHLD

OC[C@H]1O[C@@H](Oc2cc3c(O)cc(O)cc3[o+]c2-c2ccc(O)c(O)c2)[C@H](O)[C@@H](O)[C@H]1O [CG, reference compound]
Kd (FmlHLD [1]; Kd): 212 µM
inhibition at 100 µM (FmlHLD [4]; [10]): 28.8%

CC(=O)N[C@H]1[C@H](Oc2cccc(C)c2-c2cccc(NS(=O)(=O)C3CC3)c2)O[C@H](CO)[C@H](O)[C@@H]1O [Compound 3086, N-((2S,3R,4R,5R,6R)-2-((3′-(cyclopropanesulfonamido)-6-methyl-[1,1′-biphenyl]-2-yl)oxy)-4,5-dihydroxy-6-(hydroxymethyl)tetrahydro-2H-pyran-3-yl)acetamide]
SGF % remaining 6 h [2]: 100.00%
Mouse liver microsomes (t1/12 min) [3]: >145 min
inhibitory potency against FmlH, in words (FmlHLD [4]; ELISA-based competition assay): retain the same activity as the methyl sulfonamides
IC50 (FmlHLD [4]): 0.12 µM
solubility kinetic (Kinetic solubility): 196 µM (≈ 99.3 µg/mL)
bioavailability ([6]; in vivo, rat, 10 mg/kg PO vs 3 mg/kg IV, read-out: oral bioavailability (F)): < 1%
renal clearance to the urine ([6]; rat): low renal clearance to the urine
clearance (Cl) [6, 12]: 43.8 mL/min/kg
t1/2 [6, 12]: 1.46 h
Mouse plasma % remaining 2 h (Mouse plasma stability): 84.1%
SIF % remaining 2 h [5]: 100.00%

O=C(O)c1cccc(-c2ccccc2O[C@@H]2O[C@H](CO)[C@H](O)[C@H](O)[C@H]2O)c1 [Compound 200b]
Kd (FmlHLD [1]; Kd): 2.1 µM
inhibition at 1 µM (FmlHLD [4]; [8]): 12.3%
inhibition at 10 µM (FmlHLD [4]; [9]): 75.1%
inhibition at 100 µM (FmlHLD [4]; [10]): 99%

O=c1c(O[C@@H]2O[C@H](CO)[C@H](O)[C@H](O)[C@H]2O)c(-c2ccc(O)c(O)c2)oc2cc(O)cc(O)c12 [QG, reference compound]
Kd (FmlHLD [1]; Kd): 391 µM
inhibition at 100 µM (FmlHLD [4]; [10]): 14.4%

CC(=O)N[C@@H]1[C@@H](O)[C@@H](O)[C@@H](CO)O[C@H]1O (stereo in doubt) [GalNAc, N-acetylgalactosamine, reference compound]
Kd (FmlHLD [1]; [7]): 189 ± 22.9 µM
inhibition at 100 µM (FmlHLD [4]; [10]): 28.4%
inhibition at 100 µM (FmlHLD [4]; [11]): 28.5 ± 5.2%
inhibition of FmlHLD binding to ds-BSM, in words (FmlHLD [4]): capable of inhibiting FmlHLD

OC[C@H]1O[C@@H](Oc2cccc3cccnc23)[C@H](O)[C@@H](O)[C@H]1O [Compound 8HQG, reference compound]
Kd (FmlHLD [1]; Kd): 7.1 µM
inhibition at 1 µM (FmlHLD [4]; [8]): 19.2%
inhibition at 10 µM (FmlHLD [4]; [9]): 48.1%
inhibition at 100 µM (FmlHLD [4]; [10]): 95.1%

COc1ccccc1O[C@@H]1O[C@H](CO)[C@H](O)[C@H](O)[C@H]1O [Compound 5β, 2-methoxyphenyl β-D-galactopyranoside]
Kd (FmlHLD [1]; [7]): 6.5 ± 1.4 µM
PI100 (percent inhibition) (FmlHLD [4]; [13]): 97.2 ± 0.4%
inhibition at 1 µM (FmlHLD [4]; [14]): 10 ± 4.3%
inhibition at 10 µM (FmlHLD [4]; [15]): 55.7 ± 1.6%
inhibition at 100 µM (FmlHLD [4]; [11]): 97%

CC(=O)N[C@@H]1[C@H](Oc2cccc(C#N)c2-c2cccc(NS(C)(=O)=O)c2)OC(CO)[C@H](O)[C@@H]1O (stereo partly drawn) [Compound 3079, N-((2S,3S,4R,5R)-2-((6-cyano-3′-(methylsulfonamido)-[1,1′-biphenyl]-2-yl)oxy)-4,5-dihydroxy-6-(hydroxymethyl)tetrahydro-2H-pyran-3-yl)acetamide]
SGF % remaining 6 h [2]: 86.77%
Mouse liver microsomes (t1/12 min) [3]: >145 min
IC50 (FmlHLD [4]): 0.11 µM
solubility kinetic (Kinetic solubility; kinetic from dmso stock): 196 µM (≈ 96.3 µg/mL)
Mouse plasma % remaining 2 h (Mouse plasma stability): 89.1%
SIF % remaining 2 h [5]: 100.00%

OC[C@H]1O[C@@H](Oc2cccc3ccccc23)[C@H](O)[C@@H](O)[C@H]1O [Compound 115af2]
inhibition at 100 µM (FmlHLD [4]; [10]): 45.9%

OC[C@H]1O[C@H](Oc2ccccc2-c2ccccc2)[C@H](O)[C@@H](O)[C@H]1O [Compound 113f1]
inhibition at 100 µM (FmlHLD [4]; [10]): 19.2%

OC[C@H]1O[C@@H](Oc2cccc3ccncc23)[C@H](O)[C@@H](O)[C@H]1O [Compound 21β, 8-isoquinolinyl β-D-galactopyranoside]
PI100 (percent inhibition) (FmlHLD [4]; [13]): 15.2 ± 7.1%
inhibition at 100 µM (FmlHLD [4]; [11]): 15%

CC(=O)N[C@H]1[C@H](Oc2cccc([N+](=O)[O-])c2-c2cccc(NS(C)(=O)=O)c2)O[C@H](CO)[C@H](O)[C@@H]1O [Compound 3078, N-((2S,3R,4R,5R,6R)-4,5-dihydroxy-6-(hydroxymethyl)-2-((3′-(methylsulfonamido)-6-nitro-[1,1′-biphenyl]-2-yl)oxy)tetrahydro-2H-pyran-3-yl)acetamide]
IC50 (FmlHLD [4]): 0.11 µM

OC[C@H]1O[C@@H](Oc2cccc3cccnc23)[C@H](O)[C@@H](O)[C@H]1O [Compound 20β]
Kd (FmlHLD [1]; [7]): 7.1 ± 2.3 µM
PI100 (percent inhibition) (FmlHLD [4]; [13]): 95.1 ± 1.1%
inhibition at 1 µM (FmlHLD [4]; [14]): 19.2 ± 2.8%
inhibition at 10 µM (FmlHLD [4]; [15]): 48.1 ± 2%
inhibition at 100 µM (FmlHLD [4]; [11]): 95%

CC(=O)N[C@H]1[C@H](Oc2ccccc2[N+](=O)[O-])O[C@H](CO)[C@H](O)[C@@H]1O [Compound 4β-NAc]
Kd (FmlHLD [1]; [7]): 2.3 µM
PI10 (percent inhibition) (FmlHLD [4]; [16]): 87.2 ± 1.7%
inhibition at 1 µM (FmlHLD [4]; [14]): 28.6 ± 4.5%
inhibition at 10 µM (FmlHLD [4]; [15]): 87%
inhibition at 100 µM (FmlHLD [4]; [11]): 99.4 ± 1.3%

CC(=O)N[C@H]1[C@@H](Oc2ccc([N+](=O)[O-])cc2)O[C@H](CO)[C@H](O)[C@@H]1O[C@@H]1O[C@H](CO)[C@H](O)[C@H](O)[C@H]1O [Compound 33, p-nitrophenyl Gal-β1-3-GalNAc, reference compound]
PI100 (percent inhibition) (FmlHLD [4]; [16]): 15.3 ± 3.1%

N#Cc1ccccc1O[C@@H]1O[C@H](CO)[C@H](O)[C@H](O)[C@H]1O [Compound 137b]
inhibition at 1 µM (FmlHLD [4]; [8]): 12.1%
inhibition at 10 µM (FmlHLD [4]; [9]): 30.4%
inhibition at 100 µM (FmlHLD [4]; [10]): 94.5%

O=C(O)c1cccc(-c2ccccc2O[C@@H]2O[C@H](CO)[C@H](O)[C@H](O)[C@H]2O)c1 [Compound 29β, 2′-(α/β-D-galactopyranosyloxy)-[1,1′-Biphenyl]-3-carboxylic acid]
enhancement in binding affinity relative to Gal (FmlHLD [1]; BLI Kd ratio): ~330 fold
PI10 (percent inhibition) (FmlHLD [4]; [16]): 75.1 ± 1.0%
inhibition at 1 µM (FmlHLD [4]; [14]): 22.9 ± 5.1%
inhibition at 10 µM (FmlHLD [4]; [15]): 75%
inhibition at 100 µM (FmlHLD [4]; [11]): 99%

COc1ccccc1O[C@@H]1O[C@H](CO)[C@H](O)[C@H](O)[C@H]1O [Compound 149e]
Kd (FmlHLD [1]; Kd): 6.5 µM
inhibition at 1 µM (FmlHLD [4]; [8]): 9.99%
inhibition at 10 µM (FmlHLD [4]; [9]): 55.7%
inhibition at 100 µM (FmlHLD [4]; [10]): 97.2%
